From patent US20150182667A1, “Composition with Biofilm Dispersal Agents” (Vanderbilt University, priority 2012, published 2015)
Read-outs that look alike come from different tables or passages of the source.

Experiments:
[1] = system: S. aureus clinical isolate biofilms; experiment: Biofilm dispersal and prevention, crystal violet 96-well assay (Example 1); assay type: cell-based, Staphylococcus aureus; settings: 5 mM; for biofilm dispersal against panel of clinical isolates (biofilm biomass OD570): S. aureus clinical isolates, FIGS. 3A, 3C; for biofilm dispersal in pre-screening of eight D-AAs: pre-formed S. aureus biofilms, FIG. 1
Method: (§1) Biofilm formation was performed under static conditions in polystyrene 96-well plates (Corning, Inc., Corning, N.Y.). Briefly, overnight bacterial cultures were diluted to an OD600 of 0.1 in CA-MHB and 10 μL was added to individual wells filled with 190 μl of media and incubated at 37° C. for 48 h without shaking for biofilm growth. Following incubation, culture media was removed and 200 μL media containing individual D-AA at concentrations of 5 mM-1 nM was added. Plates were incubated for an additional 24 h at 37° C. After treatment, plates were gently washed with 1× phosphate buffered saline (PBS; pH 7.4) to remove non-adherent bacteria. Biofilms (i.e. attached cells) were then stained with 0.1% (w/v) crystal violet for 10 min, washed, followed by solubilization of crystal violet with 33% (v/v) acetic acid for 10 min. Biofilm biomass was determined by measuring the absorbance at 570 nm using a microtiter plate reader. For assays measuring the ability of D-AA to block biofilm formation, cells were grown under biofilm conditions as above in the presence of media containing D-AA. Three independent experiments with a minimum of 4 replicates were performed for each experimental assay. Representative images of the plates of CV stained biofilms following treatment with D-AA, prior to solubilization, were taken using a digital camera.

[2] = system: P. aeruginosa clinical isolate biofilms; experiment: as above; assay type: cell-based, Pseudomonas aeruginosa; settings: 5 mM; for biofilm dispersal against panel of clinical isolates (biofilm biomass OD570): P. aeruginosa clinical isolates, FIGS. 3A, 3C; for biofilm dispersal in pre-screening of eight D-AAs: pre-formed P. aeruginosa biofilms, FIG. 1
Method: as §1

[3] = system: S. aureus clinical isolates biofilms; experiment: Biofilm dispersal and prevention, crystal violet assay (Example 3); assay type: cell-based; settings: for dispersal of established biofilms (biofilm biomass): panel of clinical isolates of methicillin-resistant S. aureus (n=5), 5 mM, 24 h, FIGS. 8A, 8C; for biofilm dispersal in pre-screening of eight individual D-AAs: pre-formed biofilms of four clinical isolates, 0.001-50 mM, FIG. 7
Method: Like in Example 1, biofilm formation was assessed under static conditions using polystyrene 96-well plates (Corning, Inc.). Overnight bacterial cultures were diluted to an OD600 of 0.1 in TSB (˜10^7 CFU/mL), and 20 μL were added to individual wells filled with 180 μL of media and incubated at 37° C. for 48 h. To assess the biofilm dispersal activity of D-AAs, the culture medium from biofilms was removed after 48 h and 200 μL fresh medium containing either an individual D-AA or an equimolar mixture of D-AAs (1:1:1: D-Met:D-Pro:D-Trp) were added at the indicated concentrations. After treatment with D-AA(s) for 24 h, plates were gently washed with 1× phosphate buffered saline (PBS) to remove unattached cells, stained with 0.1% (w/v) crystal violet (Sigma Aldrich) for 10 min, rinsed with PBS, and then solubilized with 80% (v/v) ethanol. Biofilm biomass was determined by measuring the absorbance of solubilized stain at 570 nm using a microtiter plate reader. For assays measuring the ability of D-AA to block biofilm formation, cells were grown under biofilm conditions as above in the presence of media containing D-AAs. Representative images of the plates of CV-stained biofilms following treatment with D-AA prior to solubilization were taken using a digital camera. All assays were repeated in triplicate with a minimum of four technical replicates.

[4] = Release of D-AAs from PUR scaffolds in PBS (HPLC); assay type: physicochemical
Method: Also, kinetic release assays were performed on the PUR scaffolds by incorporating 10 wt % of a 1:1:1 mixture of D-Tr:D-Pro:D-Met incubated in PBS for up to 8 weeks. The medium was be sampled twice weekly and analyzed for D-AAs by HPLC.
PUR scaffolds incorporating 10 wt % of a 1:1:1 mixture of D-Met:D-Pro:D-Trp were incubated in PBS at 37° C. under static conditions for up to 8 weeks. This mixture was evaluated in vitro, in vivo and in the release kinetics tests to account for potential interactions between D-AAs during release. The medium was sampled on days 1, 2, 4, 7, 10, 14, 21, and 28 and analyzed for D-AAs by HPLC using a system equipped with a Waters 1525 binary pump and a 2487 Dual-Absorbance Detector at 200 nm. Samples of released D-AAs were eluted through an Atlantis HILIC Silica column (5 μm particle size, 4.6 mm diameter×250 mm length) using an isocratic mobile phase flowing at 1 mL/min. The mobile phase contained 2.5 mM potassium dihydrogen phosphate with pH=2.85 (A) and Acetonitrile (B) at a ratio of A25:B75. The column oven temperature was maintained at 30° C. Sample concentration was determined in reference to an external standard curve using the Waters Breeze system. Standard curves were prepared in the following concentration ranges: (1) 7.8 μg/mL to 1 mg/mL for D-Met and D-Pro and (2) […] to 100 μg/mL for D-Trp.

[5] = system: planktonic S. aureus clinical strains (UAMS-1, 103-700); experiment: MIC by CLSI broth microdilution, planktonic bacteria; assay type: cell-based, Staphylococcus aureus; settings: for MIC: Staphylococcus aureus, 18 h
Method: Overnight cultures of bacterial strains were diluted to a final concentration of 5×10^5 CFU/ml in MHB-II. The resulting bacterial suspension was aliquoted (100 μL) into polystyrene round-bottom 96-well plates containing 100 μL of a 2× concentration of a previously serially diluted (1:2) antibiotic. Each antimicrobial tested was serially diluted 10 times. Following the addition of bacteria, the microtiter plate was covered and was incubated under stationary conditions at 37° C. in the presence of 1× antibiotics. […] MICs of antibiotics were determined in triplicate according to the Clinical and Laboratory Standards Institute (CLSI) broth microdilution as described by the performance standards for antimicrobial susceptibility testing (M100-S22, January 2012).

[6] = system: biofilm derived S. aureus clinical strains (UAMS-1, 103-700); experiment: Biofilm susceptibility, Calgary Biofilm device (MBEC plates): MBIC and viable CFU; assay type: cell-based, Staphylococcus aureus; settings: for Biofilm (MBIC) 103-700: S. aureus 103-700 48 h biofilm; for Biofilm (MBIC) 103-700 / Biofilm (MBIC) UAMS-1: 24 h challenge, * = with 5 mM D-AA; for Biofilm (MBIC) UAMS-1: S. aureus UAMS-1 48 h biofilm; for % Decrease + SD in CFU, 8 μg/mL / % Decrease + SD in CFU, 16 μg/mL / % Decrease + SD in CFU, 32 μg/mL / % Decrease + SD in CFU, 64 μg/mL: S. aureus UAMS-1 biofilm; for % Decrease + SD in CFU, 8 μg/mL: antibiotic 8 μg/mL; for % Decrease + SD in CFU, 16 μg/mL: antibiotic 16 μg/mL; for % Decrease + SD in CFU, 32 μg/mL: antibiotic 32 μg/mL; for % Decrease + SD in CFU, 64 μg/mL: antibiotic 64 μg/mL, vs non-treated biofilms; for effect of the antimicrobial against biofilms when combined with the D-AA mixture: S. aureus biofilms, both strains, bacterial CFUs within biofilms
Method: Biofilm susceptibility to antimicrobial agents in the presence and absence of D-AA was determined using the Calgary Biofilm device. Briefly, biofilms from overnight cultures were established as above on individual pegs of the minimum biofilm eradication concentration (MBEC) plates (Innovotech, Canada) with agitation for 48 h at 37° C. Following incubation, the lid with pegs was removed from the incubation plate, washed by re-suspending pegs into plate with wells containing 200 μl of 1×PBS, then placed into a 96-well challenge plate containing pre-diluted antibiotics with or without an […] for an additional 24 h at 37° C. Following challenge plates were washed, and the attached viable cells on PEGs within the biofilm were determined by plating serial dilutions onto blood agar plates (Remel). Corresponding minimal biofilm inhibitory concentration (MBIC) was also determined by measuring the optical density in individual wells of the challenge plate at 600 nm. The lowest concentration of antibiotic for which an optical density of <0.100 was recorded as the MBIC. For each antibiotic, the MBIC was determined in the presence or absence of a mixture of D-AA (D-Phenylalanine, D-Methionine, and D-Tryptophan) at an equimolar concentration of 5 mM. Three independent experiments were performed for each of these assays, with a minimum of 3 replicates.

[7] = S. aureus 103-700, agents marked * in combination with equimolar 5 mM D-AA
[8] = S. aureus 103-700, agents marked * in combination with equimolar 5 mM D-AA, read-out: Planktonic (MIC) 103-700
[9] = S. aureus UAMS-1, agents marked * in combination with equimolar 5 mM D-Phenylalanine, D-Tryptophan, D-Methionine, read-out: Planktonic (MIC) UAMS-1

Row | SMILES | biofilm dispersal against panel of clinical isolates (biofilm biomass OD570) [1] | biofilm dispersal in pre-screening of eight D-AAs [1] | biofilm dispersal against panel of clinical isolates (biofilm biomass OD570) [2] | biofilm dispersal in pre-screening of eight D-AAs [2] | dispersal of established biofilms (biofilm biomass) [3] | biofilm dispersal in pre-screening of eight individual D-AAs [3] | cumulative release by day 28 ([4]; PUR scaffold with 10 wt % D-AA mixture, PBS 37° C.) [%] | burst release ([4]; day 1, PUR scaffold with 10 wt % 1:1:1 D-Met:D-Pro:D-Trp, PBS 37° C.) [%] | b parameter of Weibull model ([4]; fit of D-AA release data) | Planktonic (MIC) 103-700 [5, 7] [µg/mL] | MIC [5, 8] [µg/mL] | MIC [5, 9] [µg/mL] | Biofilm (MBIC) 103-700 [6] [µg/mL] | Biofilm (MBIC) UAMS-1 [6] [µg/mL] | % Decrease + SD in CFU, 8 μg/mL [6] [%] | % Decrease + SD in CFU, 16 μg/mL [6] [%] | % Decrease + SD in CFU, 32 μg/mL [6] [%] | % Decrease + SD in CFU, 64 μg/mL [6] [%] | Planktonic (MIC) UAMS-1 ([5]; S. aureus UAMS-1, agents marked * in combination with equimolar 5 mM D-Phenylalanine, D-Tryptophan, D-Methionine) [µg/mL] | effect of the antimicrobial against biofilms when combined with the D-AA mixture [6]
1 | N[C@H](Cc1ccccc1)C(=O)O [D-Phe, D-phenylalanine] | capable of significantly dispersing biofilm formation | relatively more effective at dispersing biofilms | capable of significantly dispersing biofilm formation | relatively more effective at dispersing biofilms | effective at dispersing established biofilms | effective at dispersing biofilms | – | – | – | – | – | – | – | – | – | – | – | – | – | –
2 | O=C(O)[C@H]1CCCN1 [D-Pro, D-proline] | capable of significantly dispersing biofilm formation | relatively more effective at dispersing biofilms | capable of significantly dispersing biofilm formation | relatively more effective at dispersing biofilms | effective at dispersing established biofilms | effective at dispersing biofilms | 85 | 45 | 0.35 | – | – | – | – | – | – | – | – | – | – | –
3 | Cc1onc(-c2ccccc2)c1C(=O)N[C@@H]1C(=O)N2[C@@H]1SC(C)(C)[C@@H]2C(=O)O [OXA, Oxacillin] | – | – | – | – | – | – | – | – | – | 8 | 8 | 1 | >64 | >64 | – | – | – | – | – | –
4 | Cc1nnc(SCC2=C(C(=O)O)N3C(=O)[C@@H](NC(=O)Cn4cnnn4)[C@H]3SC2)s1 [CFZ, Cefazolin] | – | – | – | – | – | – | – | – | – | – | 16 | 0.5 | >128 | >128 | – | – | – | – | – | –
5 | CCC[C@@H]1C[C@@H](C(=O)N[C@@H]([C@H]2O[C@H](SC)[C@H](O)[C@@H](O)[C@H]2O)[C@H](C)Cl)N(C)C1 [CLI, Clindamycin] | – | – | – | – | – | – | – | – | – | – | 0.5 | 0.5 | >64 | 64 | 1.8 ± 1.0 | 9.3 ± 1.8 | 32.86 ± 4.3 | 66.0 ± 3.4 | – | –
6 | CN[C@H](CC(C)C)C(=O)N[C@H]1C(=O)N[C@@H](CC(N)=O)C(=O)N[C@H]2C(=O)N[C@H]3C(=O)N[C@H](C(=O)N[C@H](C(=O)O)c4cc(O)cc(O)c4-c4cc3ccc4O)[C@H](O)c3ccc(c(Cl)c3)Oc3cc2cc(c3O[C@@H]2O[C@H](CO)[C@@H](O)[C@H](O)[C@H]2O[C@H]2C[C@](C)(N)[C@H](O)[C@H](C)O2)Oc2ccc(cc2Cl)[C@H]1O [VAN, Vancomycin] | – | – | – | – | – | – | – | – | – | 1 | – | – | >64 | >64 | 1.5 ± 5.7 | 15.93 ± 6.2 | 31.90 ± 7.1 | 65.97 ± 5.3 | 0.5 | enhanced the effect
7 | CO[C@H]1/C=C/O[C@@]2(C)Oc3c(C)c(O)c4c(O)c(c(/C=N/N5CCN(C)CC5)c(O)c4c3C2=O)NC(=O)/C(C)=C\C=C\[C@H](C)[C@H](O)[C@@H](C)[C@@H](O)[C@@H](C)[C@H](OC(C)=O)[C@@H]1C [RIF, Rifampin] | – | – | – | – | – | – | – | – | – | – | 0.5 | 0.5 | 32 | 32 | 16.87 ± 2.9 | 34.31 ± 5.4 | 70.70 ± 4.3 | 67.36 ± 1.2 | – | enhanced the effect
